Consider 53 compounds from patent publication US11667632B2, “2-(1H-indazol-3-yl)-3H-imidazo[4,5-C]pyridines and their anti-inflammatory uses thereof” (BioSplice Therapeutics, Inc., priority 2015, dated 2023).

Some results are limits rather than exact numbers.

The term EC50 denotes the concentration that produces a half-maximal response. A high value points to lower potency in that assay.

The first assay deals with IL-6. Put plainly: Inhibition of IL-6 in LPS-stimulated human monocyte cells (THP-1), HTRF. Conditions: Homo sapiens; THP-1 cells, LPS 500 ng/mL, IL-6 by HTRF. It is filed as cell-based. As for the experimental part: Human Monocyte Cell Culture: A human monocyte cell line (THP-1 cells; Catalog #TIB-202, ATCC, Manassas, Va.) was cultured in Roswell Park Memorial Institute (RPMI) 1640 Medium (Catalog #21870-100, Buffalo, N.Y.) with 1% L-glutamine, 1% HEPES, 1% sodium pyruvate, 2% sodium bicarbonate supplemented with 100 units/mL penicillin, 50 μg/mL streptomycin, 2-mercaptoethanol (0.05 mM) [basal medium] and 10% fetal bovine serum (Catalog #16140089, Life Technologies, Carlsbad, Calif.) at 37° C. and 5% CO2.
Compound Screening: THP-1 cells were cultured in basal media with 1% FBS for 24 hours before the start of the assay. Each compound of Formula (I) was dissolved in DMSO as a 10 mM stock and used to prepare compound source plates. Serial dilution (1:3, 10-point dose-response curves starting from 10 μM) and compound transfer was performed using the ECHO 550 (Labcyte, Sunnyvale, Calif.) into 384-well white low volume assay plates (Greiner Bio-One) with appropriate DMSO backfill for a final DMSO concentration of 0.1%. THP-1 cells were plated at 5000 cells/well in the 384-well plates and incubated at 37° C. for 2 h. 500 ng/mL of LPS was added after 2 hours and cells were incubated for another 22 hours at 37° C. Plates were spun in a centrifuge for 1 minute at 10,000 rpm and a mixture of anti-IL-6 XL665, and anti-IL-6 Cryptate diluted in reconstitution buffer (Cisbio Inc.) was added to each well. Following incubation for 3 hrs at room temperature, homogeneous time-resolved fluorescence (HTRF) was measured using the Envision (Perkin Elmer) at 665 nm and […]. The ratio of fluorescence at 665 nm to 620 nm was used as a readout for IL-6 quantification. All samples were processed in duplicate. Readings were normalized to DMSO treated cells and normalized activities were utilized for EC50 calculations using the dose-response log (inhibitor) vs. response -variable slope (four parameters) nonlinear regression feature available in GraphPad Prism 5.0 (or Dotmatics). For EC50 of >10 μM, the percent inhibition at 10 μM is provided.
For orientation: In TR-FRET formats the signal depends on donor and acceptor labels being close together.
With `CC(C)CC(=O)Nc1cncc(-c2ccc3[nH]nc(-c4nc5c(N6CCN(C)CC6)cncc5[nH]4)c3c2)c1` [Compound 1], a half-maximal effect (EC50) was put at 451 nM. This counts as sub-micromolar. `Nc1cncc(-c2ccc3[nH]nc(-c4nc5c(-c6ccsc6)cncc5[nH]4)c3c2)c1` [Compound 291]: a half-maximal response (EC50) required 11 nM.

`O=C(Nc1cncc(-c2ccc3[nH]nc(-c4nc5c(-c6ccncc6)cncc5[nH]4)c3c2)c1)C1CCCC1` [Compound 170] yielded an EC50 of 4690 nM. As to `O=C(Nc1cncc(-c2ccc3[nH]nc(-c4nc5c(-c6cccc(F)c6)cncc5[nH]4)c3c2)c1)C1CCCCC1` [Compound 94], a half-maximal effect (EC50) was put at 19 nM. As for `FC1(F)CCN(Cc2cncc(-c3ccc4[nH]nc(-c5nc6c(-c7cccnc7)cncc6[nH]5)c4c3)c2)C1` [Compound 339], the EC50 turned out to be 97 nM. Compared with the last compound, the EC50 is about 5.1-fold higher. In turn, `CC(C)(C)C(=O)Nc1cncc(-c2ccc3[nH]nc(-c4nc5c(-c6ccoc6)cncc5[nH]4)c3c2)c1` [Compound 319] gave an EC50 of 78 nM. For `CN(C)Cc1cncc(-c2ccc3[nH]nc(-c4nc5c(-c6ccsc6)cncc5[nH]4)c3c2)c1` [Compound 301], the EC50 turned out to be 127 nM.

As to `c1ncc(-c2ccc3[nH]nc(-c4nc5c(N6CCCCC6)cncc5[nH]4)c3c2)cc1CN1CCCC1` [Compound 211], the EC50 was determined as 311 nM.

In turn, `CN(C)Cc1cncc(-c2ccc3[nH]nc(-c4nc5c(N6CCN(C)CC6)cncc5[nH]4)c3c2)c1` [Compound 3] returned an EC50 of 273 nM. For `c1cc(-c2cncc3[nH]c(-c4n[nH]c5ccc(-c6cncc(CN7CCCCC7)c6)cc45)nc23)ccn1` [Compound 164], the response was half-maximal at 433 nM (EC50). The same measure, in the same setting: with `O=C(Nc1cncc(-c2ccc3[nH]nc(-c4nc5ccncc5[nH]4)c3c2)c1)C1CC1` [Compound 283] the figure was more than 10000 nM; with `c1cc(-c2cncc3[nH]c(-c4n[nH]c5ccc(-c6cncc(CN7CCCC7)c6)cc45)nc23)ccn1` [Compound 163], more than 10000 nM. Take `CC(C)Nc1cncc(-c2ccc3[nH]nc(-c4nc5c(-c6ccccc6F)cncc5[nH]4)c3c2)c1` [Compound 124]: the EC50 stood at 47 nM. Consider `O=C(Cc1ccccc1)Nc1cncc(-c2ccc3[nH]nc(-c4nc5c(-c6ccoc6)cncc5[nH]4)c3c2)c1` [Compound 321], for which the EC50 came to 697 nM. Consider `c1cncc(-c2ccc3[nH]nc(-c4nc5c(N6CCOCC6)cncc5[nH]4)c3c2)c1` [Compound 6], for which the EC50 was determined as 232 nM. Compound `Cc1ccncc1-c1ccc2[nH]nc(-c3nc4c(-c5ccncc5)cncc4[nH]3)c2c1` [Compound 154] yielded an EC50 of 188 nM. Compound `CCCCC(=O)Nc1cncc(-c2ccc3[nH]nc(-c4nc5c(-c6ccoc6)cncc5[nH]4)c3c2)c1` [Compound 329] yielded an EC50 of 58 nM. Compound `Fc1ccccc1-c1cncc2[nH]c(-c3n[nH]c4ccc(-c5cncc(CN6CCCCC6)c5)cc34)nc12` [Compound 127] registered an EC50 of 138 nM.

Compound `Nc1cncc(-c2ccc3[nH]nc(-c4nc5c(-c6ccc(F)cc6)cncc5[nH]4)c3c2)c1` [Compound 97] showed an EC50 of 122 nM. This EC50 and that of the compound before are within 1.5-fold of each other. In turn, `Cc1ccncc1-c1ccc2[nH]nc(-c3nc4c(-c5ccsc5)cncc4[nH]3)c2c1` [Compound 293] registered an EC50 of 58 nM. With `O=C(Nc1cncc(-c2ccc3[nH]nc(-c4nc5ccncc5[nH]4)c3c2)c1)C1CCCCC1` [Compound 286], the response was half-maximal at 827 nM (EC50).

In the case of `O=C(Nc1cncc(-c2ccc3[nH]nc(-c4nc5ccncc5[nH]4)c3c2)c1)c1ccccc1` [Compound 275], the EC50 was more than 10000 nM. For `CN1CCN(c2cncc3[nH]c(-c4n[nH]c5ccc(-c6cncc(NC(=O)C7CCCCC7)c6)cc45)nc23)CC1` [Compound 263], the EC50 stood at 224 nM. The same measure, in the same setting: the figure for `CN(C)c1cncc(-c2ccc3[nH]nc(-c4nc5c(-c6ccsc6)cncc5[nH]4)c3c2)c1` [Compound 295] is 47 nM. On to `CC(C)CC(=O)Nc1cncc(-c2ccc3[nH]nc(-c4nc5c(N6CCCCC6)cncc5[nH]4)c3c2)c1` [Compound 199], for which a half-maximal response (EC50) required 103 nM.

Compound `O=C(Cc1ccccc1)Nc1cncc(-c2ccc3[nH]nc(-c4nc5c(-c6cccc(F)c6)cncc5[nH]4)c3c2)c1` [Compound 86] came in with an EC50 of 42 nM. As to `CCC(=O)Nc1cncc(-c2ccc3[nH]nc(-c4nc5c(-c6cccc(F)c6)cncc5[nH]4)c3c2)c1` [Compound 24], the EC50 is 19 nM. Consider `CC(C)CC(=O)Nc1cncc(-c2ccc3[nH]nc(-c4nc5c(-c6ccccc6F)cncc5[nH]4)c3c2)c1` [Compound 11], for which a half-maximal effect (EC50) was put at 33 nM. Take `FC1(F)CCN(Cc2cncc(-c3ccc4[nH]nc(-c5nc6c(-c7ccsc7)cncc6[nH]5)c4c3)c2)C1` [Compound 346]: the EC50 was found to be 37 nM.

Consider `CC(C)C(=O)Nc1cncc(-c2ccc3[nH]nc(-c4nc5c(-c6ccccc6F)cncc5[nH]4)c3c2)c1` [Compound 31], for which the EC50 was found to be 14 nM. This EC50 is about 2.6-fold lower than that of the compound before.

In turn, `CCC(=O)Nc1cncc(-c2ccc3[nH]nc(-c4nc5c(-c6ccsc6)cncc5[nH]4)c3c2)c1` [Compound 289] had an EC50 of 16 nM. In turn, `c1cc(-c2cncc3[nH]c(-c4n[nH]c5ccc(-c6cncc(CNCC7CCCC7)c6)cc45)nc23)ccn1` [Compound 173] came in with an EC50 of more than 10000 nM.

The compound `CN(C)Cc1cncc(-c2ccc3[nH]nc(-c4nc5c(-c6cncc(F)c6)cncc5[nH]4)c3c2)c1` [Compound 16] registered an EC50 of 134 nM. Turning to `O=C(Nc1cncc(-c2ccc3[nH]nc(-c4nc5c(-c6cccc(F)c6)cncc5[nH]4)c3c2)c1)C1CC1` [Compound 91], a half-maximal effect (EC50) was put at 19 nM. Consider `O=C(Nc1cncc(-c2ccc3[nH]nc(-c4nc5c(-c6ccc(F)cc6)cncc5[nH]4)c3c2)c1)c1ccccc1` [Compound 104], for which the response was half-maximal at 7240 nM (EC50). Compound `CN1CCN(c2cncc3[nH]c(-c4n[nH]c5ccc(-c6cncc(NC(=O)C7CC7)c6)cc45)nc23)CC1` [Compound 260] displayed an EC50 of 295 nM. On to `FC1(F)CCN(Cc2cncc(-c3ccc4[nH]nc(-c5nc6c(N7CCCCC7)cncc6[nH]5)c4c3)c2)C1` [Compound 342], for which the midpoint of the response, the EC50, lay at 109 nM. Consider `c1cncc(-c2ccc3[nH]nc(-c4nc5c(-c6cccnc6)cncc5[nH]4)c3c2)c1` [Compound 136], for which the EC50 was 125 nM. The EC50 values of the last two compounds are within 1.5-fold of each other. `CC(C)(C)C(=O)Nc1cncc(-c2ccc3[nH]nc(-c4nc5c(-c6ccc(F)cc6)cncc5[nH]4)c3c2)c1` [Compound 102] showed an EC50 of 53 nM. Same read-out and setting: the figure for `CC(C)CC(=O)Nc1cncc(-c2ccc3[nH]nc(-c4nc5c(-c6cc(F)cc(NCCN(C)C)c6)cncc5[nH]4)c3c2)c1` [Compound 349] is 34 nM; for `CCC(=O)Nc1cncc(-c2ccc3[nH]nc(-c4nc5c(-c6cncc(F)c6)cncc5[nH]4)c3c2)c1` [Compound 20] it is 15 nM; for `c1cc(-c2cncc3[nH]c(-c4n[nH]c5ccc(-c6cncc(CNCC7CCCC7)c6)cc45)nc23)cs1` [Compound 311] it is 216 nM. `CN1CCN(c2cncc3[nH]c(-c4n[nH]c5ccc(-c6cncc(NC(=O)CC(C)(C)C)c6)cc45)nc23)CC1` [Compound 257]: the EC50 is 97 nM. For `CCCC(=O)Nc1cncc(-c2ccc3[nH]nc(-c4nc5c(N6CCCCC6)cncc5[nH]4)c3c2)c1` [Compound 214], the EC50 amounted to 59 nM. Take `CC(C)C(=O)Nc1cncc(-c2ccc3[nH]nc(-c4nc5c(N6CCN(C)CC6)cncc5[nH]4)c3c2)c1` [Compound 2]: the EC50 turned out to be 290 nM. This EC50 is about 4.9-fold higher than that of the compound before. Still for that read-out and setting: the figure for `Cc1ccncc1-c1ccc2[nH]nc(-c3nc4c(-c5ccc(F)cc5)cncc4[nH]3)c2c1` [Compound 99] is 40 nM; for `CN1CCN(c2cncc(-c3ccc4[nH]nc(-c5nc6ccncc6[nH]5)c4c3)c2)CC1` [Compound 7] it is 2430 nM; for `O=C(Nc1cncc(-c2ccc3[nH]nc(-c4nc5c(-c6ccoc6)cncc5[nH]4)c3c2)c1)C1CC1` [Compound 330] it is 5870 nM. `Fc1cccc(-c2cncc3[nH]c(-c4n[nH]c5ccc(-c6cccnc6)cc45)nc23)c1` [Compound 15]: the EC50 came out at 23 nM. For the compound `O=C(Nc1cncc(-c2ccc3[nH]nc(-c4nc5c(-c6ccoc6)cncc5[nH]4)c3c2)c1)C1CCCCC1` [Compound 333], a half-maximal response (EC50) required 103 nM. `CC(C)C(=O)Nc1cncc(-c2ccc3[nH]nc(-c4nc5ccncc5[nH]4)c3c2)c1` [Compound 9] came in with an EC50 of 2260 nM. Against the preceding compound, the EC50 is about 22-fold higher.

For the compound `CC(C)(C)CC(=O)Nc1cncc(-c2ccc3[nH]nc(-c4nc5c(-c6cccc(F)c6)cncc5[nH]4)c3c2)c1` [Compound 90], the EC50 turned out to be 42 nM. Compound `CCC(=O)Nc1cncc(-c2ccc3[nH]nc(-c4nc5c(-c6ccccn6)cncc5[nH]4)c3c2)c1` [Compound 174] gave an EC50 of 16 nM.

Still in this assay, the particulars now being: THP-1 cells, LPS-stimulated; dose-response starting from 10 μM.
Take `O=C(Nc1cncc(-c2ccc3[nH]nc(-c4nc5ccncc5[nH]4)c3c2)c1)C1CC1` [Compound 283]: the “percent inhibition of IL-6 at 10 μM” value is “(50.7%)”. On to `c1cc(-c2cncc3[nH]c(-c4n[nH]c5ccc(-c6cncc(CN7CCCC7)c6)cc45)nc23)ccn1` [Compound 163], for which the “percent inhibition of IL-6 at 10 μM” value is “(30.0%)”. `O=C(Nc1cncc(-c2ccc3[nH]nc(-c4nc5ccncc5[nH]4)c3c2)c1)c1ccccc1` [Compound 275]: the “percent inhibition of IL-6 at 10 μM” value is on record as “(9.9%)”. Regarding `c1cc(-c2cncc3[nH]c(-c4n[nH]c5ccc(-c6cncc(CNCC7CCCC7)c6)cc45)nc23)ccn1` [Compound 173], the “percent inhibition of IL-6 at 10 μM” value is “(11.7%)”.
